Source: patent publication US9193715B2, “Regulation of cholesterol homeostasis” (University of Notre Dam du Lac, priority 2012, dated 2015)
pIC50: −log10 of the molar value.

What was measured:
[1] = test system: NPC1-mutant human fibroblasts (GM03123); test: Filipin fluorescent imaging of intracellular cholesterol in NPC1-mutant human fibroblasts; type: cell-based
Protocol: GEX1A was evaluated for its ability to lower intracellular cholesterol levels in NPC1-mutant human fibroblasts (GM03123) through a previously described fluorescent imaging method (Pipalia et al., Automated microscopy screening for compounds that partially revert cholesterol accumulation in Niemann-Pick C cells. J. Lipid Res. (2006) 47: 284-301.).
Compounds described herein were evaluated for their ability to lower intracellular cholesterol levels in NPC1-mutant human fibroblasts (GM03123) by the fluorescent imaging methods of Pipalia and coworkers.

human endothelial cells = test: Filipin staining of cholesterol in itraconazole-induced NPC-like phenotype; type: cell-based
Protocol: Itraconazole, an anti-fungal agent, interferes with cholesterol trafficking and induces an NPC-like phenotype in human endothelial cells. Itraconazole (200 nM) was administered in two experiments with 100 nM GEX1A and 10 nM GEX1A, respectively. Filipin is used as a histochemical stain to visualize cholesterol in the cell line.

Row | SMILES | correction of the NPC1 phenotype (filipin staining in the cell) ([1]; GM03123 cells, fluorescent imaging, FIG. 2) | potency in the classic filipin assay relative to HDAC inhibitors ([1]; NPC cells, preliminary studies) | amount of cholesterol in cell line (filipin stain) (human endothelial cells; 10 nM GEX1A with itraconazole 200 nM) | amount of cholesterol in cell line (filipin stain) (human endothelial cells; 100 nM GEX1A with itraconazole 200 nM) | pIC50 (human endothelial cells; Homo sapiens, Endothelial cell, filipin cholesterol staining, itraconazole 200 nM) | correction of the NPC1 phenotype ([1]; 10 nM to 100 nM, time points of 24-72 hours, postulated)
1 | CO[C@H]([C@@H](C)[C@H]1OC1(C)C[C@H](C)/C=C/C=C(\C)[C@H]1O[C@@H](CC(=O)O)CC[C@@H]1C)[C@@H](C)O (stereo partly drawn) [GEX1A] | correction of the NPC1 phenotype | equipotent to HDAC inhibitors | significant decrease | significant decrease | 8.22 | 
2 | CC[C@H](O)[C@@H](C)[C@H]1O[C@@H]1C[C@H](C)/C=C/C=C(\C)[C@H]1OC(=O)C[C@H](O)CC[C@@](C)(O)[C@@H](OC(C)=O)/C=C/[C@@H]1C [Pladienolide, pladienolide B] |  |  |  |  |  | significant correction of the NPC1 phenotype
